Experimental data as given in patent publication US20240091366A1, “NOVEL ACID-SENSITIVE APTAMER TRIPTOLIDE CONJUGATE AND APPLICATIONS” (priority 2022, published 2024).
Values joined by “and” are separate entries in the source; they are usually repeats but may differ in a detail not shown here. Equal values may be shown once.

Experiments:
[1] = test system: breast cancer cell line MDA-MB-231; assay: MTT assay, cell proliferation inhibition; type: cell-based; settings: for cell proliferation inhibition rate: 48 h, samples 1-3
From the text: (§1) Material: aptamer triptolide conjugate (AS1411-TP). Triptolide (TP) was provided by Shanghai Yaji Biotechnology Co. Ltd; aptamer (AS1411) was obtained from Chengdu Pilot Drug Development Co. Ltd; trypsin, thiazolyl blue (MTT) (Biofroxx, Germany); dimethyl sulfoxide (DMSO) (MP Biomedicals, France); fetal bovine serum (FBS) (Newzerum, New Zealand); DMEM medium, RPMI1640 medium, Petri dishes, 96-well plates (Corning, USA); colon cancer cells HCT116, breast cancer cells MDA-MB-231, non-small-cell lung cancer cells A549, pancreatic cancer cells PANC-1, and hepatocellular carcinoma cells HepG2 were purchased from the Shanghai Cell Bank of the Chinese Academy of Sciences and preserved in the laboratory.
(§2) Take the tumor cells HCT116, MDA-MB-231, A549, PANC-1 and HepG2 cell lines from the liquid nitrogen tank, place them in a 37° C. water bath, wait for the frozen cells to melt into cell suspension, centrifuge the cells at 1000 r/min for 3 min, discard the supernatant, add 1 ml of fresh complete medium containing 10% fetal bovine serum and 1% double antibody to mix the cells, then add 5 ml of medium, gently and repeatedly blowing the cells with a pipette gun to make them mix well. Then add 5 ml of medium, blow the cells gently and repeatedly with a pipette gun to mix them well, and finally transfer the cell suspension to a […] and label the cell name, cell number, date of resuscitation and the operator's name, and place it in a cell culture incubator for cultivation. (HCT116, PANC-1 and HepG2 cell lines were cultured in DMEM medium, while MDA-MB-231 cell line and A549 cell line were cultured in RPMI1640 medium).
(§3) Take HCT116, MDA-MB-231, A549, PANC-1, HepG2 cells with good growth status, remove the medium, add 1 ml of sterile PBS to wash, add 1.5 ml of trypsin to digest the cells, about 2 min later the cells become round and fall off, add 1.5 ml of medium to terminate the digestion, transfer it to centrifugal tube, centrifuge at 1000 r/min for 3 min, discard the supernatant, add 1 ml of fresh medium to resuspend, then add fresh medium for 1:3 distribution to other culture dishes, and label the date of transmission and the number of generations. Place in the cell culture incubator for cultivation.
(§4) Take HCT116, MDA-MB-231, A549, PANC-1, HepG2 cells with good growth status, by the same operation as the cell passaging experiment, after cell resuspension, cell counting with hemocyte counting plate, with 2500 cells/well, plant in 96-well plate, after 24 h of cell culture, remove the original medium, add medium containing different concentrations of drugs and continue to cultivate for 48 hours. After 24 h of cell culture, the original medium was removed and the medium containing different concentrations of drugs was added to continue the culture for 48 hours. […] The above steps were repeated three times.

[2] = test system: colon cancer cell line HCT116; assay: MTT assay, cell proliferation inhibition; type: cell-based; settings: for cell proliferation inhibition rate: 48 h, samples 1-3
From the text: as §1, §2, §3, §4

[3] = test system: hepatocellular carcinoma cell line HepG2; assay: MTT assay, cell proliferation inhibition; type: cell-based; settings: for cell proliferation inhibition rate: 48 h, samples 1-3
From the text: as §1, §2, §3, §4

[4] = test system: lung adenocarcinoma cell line A549; assay: MTT assay, cell proliferation inhibition; type: cell-based; settings: for cell proliferation inhibition rate: 48 h, samples 1-3
From the text: as §1, §2, §3, §4

[5] = test system: pancreatic cancer cell line PANC-1; assay: MTT assay, cell proliferation inhibition; type: cell-based; settings: for cell proliferation inhibition rate: 48 h, samples 1-3
From the text: as §1, §2, §3, §4

[6] = Body weight during administration, breast cancer model; settings: MDA-MB-231 model, during 8 times of administration
Method: Specific experimental protocol: Female nude mice were reared for 6-7 weeks under standard environment, breast cancer cells MDA-MB-231 were suspended in serum-free medium, and each mouse was inoculated with 6*10^6 tumor cells. When the tumor volume reached 50-100 mm^3, the mice were randomly divided into 4 groups, and were injected with aptamer triptolide conjugate, triptolide, and aptamer by tail vein, respectively, 12 mice in each group. A PBS negative control group was set up. […] The drugs were administered once every 2 days for 8 consecutive doses, and the experiment was ended 24 hours after the last dose. At the end of the experiment, the animals were executed by breaking the cervical vertebrae, and the tumors were stripped and weighed to calculate the tumor growth inhibition rate of the drug. The t-test was used to compare the tumor weight, tumor volume, RTV and other indexes of the animals in each group.

With “AS1411: nucleolin aptamer, single-stranded oligonucleotide, SEQ ID NO: 1 GGTGGTGGTGGTTGTGGTGGTGGTGG” the “cell proliferation inhibition rate” value ([1]; MDA-MB-231, 3.1 nM, 0.0031 µM) was 2.2910 and 2.1209 and 2.5159, the “cell proliferation inhibition rate” value ([1]; MDA-MB-231, 6.3 nM, 0.0063 µM) was 3.2333 and 4.9611 and 4.2994 and the “cell proliferation inhibition rate” value ([1]; MDA-MB-231, 25.0 nM, 0.025 µM) was 5.5843 and 7.7330 and 4.4586. For the same substance, the “cell proliferation inhibition rate” value ([1]; MDA-MB-231, 50.0 nM, 0.05 µM) was 6.8129 and 6.6467 and 6.1306, the “cell proliferation inhibition rate” value ([1]; MDA-MB-231, 100.0 nM, 0.1 µM) was 9.0069 and 8.0722 and 8.6624 and the “cell proliferation inhibition rate” value ([1]; MDA-MB-231, 200.0 nM, 0.2 µM) was 14.4727 and 11.8492 and 10.6369. For the same substance, the “inhibitory effect on tumor cell” value ([1]; MDA-MB-231, at the experimental concentration) was “did not have any significant inhibitory effect”, the “cell proliferation inhibition rate” value ([2]; HCT116, 6.3 nM, 0.0063 µM) was 2.9669 and 1.6683 and 3.1584 and the “cell proliferation inhibition rate” value ([2]; HCT116, 12.5 nM, 0.0125 µM) was 4.1987 and 3.0229 and 2.5102. For the same substance, the “cell proliferation inhibition rate” value ([2]; HCT116, 25.0 nM, 0.025 µM) was 5.4987 and 6.2971 and 5.6986, the “cell proliferation inhibition rate” value ([2]; HCT116, 50.0 nM, 0.05 µM) was 6.5424 and 6.5952 and 5.0330 and the “cell proliferation inhibition rate” value ([2]; HCT116, 100.0 nM, 0.1 µM) was 10.6504 and 12.1637 and 10.9076. The “cell proliferation inhibition rate” value ([2]; HCT116, 200.0 nM, 0.2 µM) was 16.9608 and 13.5881 and 14.2937, the “inhibitory effect on tumor cell” value ([2]; HCT116, at the experimental concentration) was “did not have any significant inhibitory effect” and the “cell proliferation inhibition rate” value ([3]; HepG2, 3.1 nM, 0.0031 µM) was 2.0417 and 2.2455 and 2.1946. The “cell proliferation inhibition rate” value ([3]; HepG2, 12.5 nM, 0.0125 µM) was 3.5280 and 2.4483 and 3.6148, the “cell proliferation inhibition rate” value ([3]; HepG2, 25.0 nM, 0.025 µM) was 4.1258 and 3.9268 and 4.1946 and the “cell proliferation inhibition rate” value ([3]; HepG2, 50.0 nM, 0.05 µM) was 8.4300 and 6.9712 and 9.6253. The “cell proliferation inhibition rate” value ([3]; HepG2, 100.0 nM, 0.1 µM) was 7.2906 and 11.7328 and 8.7216, the “cell proliferation inhibition rate” value ([3]; HepG2, 200.0 nM, 0.2 µM) was 10.3764 and 15.8325 and 9.9457 and the “inhibitory effect on tumor cell” value ([3]; HepG2, at the experimental concentration) was “did not have any significant inhibitory effect”. For the same substance, the “cell proliferation inhibition rate” value ([4]; A549, 12.5 nM, 0.0125 µM) was 5.5843 and 7.7330 and 4.4586, the “cell proliferation inhibition rate” value ([4]; A549, 25.0 nM, 0.025 µM) was 6.8129 and 6.6467 and 6.1306 and the “cell proliferation inhibition rate” value ([4]; A549, 50.0 nM, 0.05 µM) was 9.0069 and 8.0722 and 7.6624. For the same substance, the “cell proliferation inhibition rate” value ([4]; A549, 100.0 nM, 0.1 µM) was 11.4727 and 11.8492 and 10.6369, the “cell proliferation inhibition rate” value ([4]; A549, 200.0 nM, 0.2 µM) was 14.5704 and 11.4171 and 14.3285 and the “inhibitory effect on tumor cell” value ([4]; A549, at the experimental concentration) was “did not have any significant inhibitory effect”. For the same substance, the “cell proliferation inhibition rate” value ([5]; PANC-1, 12.5 nM, 0.0125 µM) was 3.6656 and 3.5639 and 3.6148, the “cell proliferation inhibition rate” value ([5]; PANC-1, 25.0 nM, 0.025 µM) was 3.0417 and 4.2455 and 4.1946 and the “cell proliferation inhibition rate” value ([5]; PANC-1, 50.0 nM, 0.05 µM) was 7.2954 and 7.9552 and 9.6253. For the same substance, the “cell proliferation inhibition rate” value ([5]; PANC-1, 100.0 nM, 0.1 µM) was 8.3147 and 7.1285 and 8.7216, the “cell proliferation inhibition rate” value ([5]; PANC-1, 200.0 nM, 0.2 µM) was 9.6236 and 10.2679 and 9.9457 and the “inhibitory effect on tumor cell” value ([5]; PANC-1, at the experimental concentration) was “did not have any significant inhibitory effect”. The “body weights of mice” value [6] was “basically maintained in the tolerable range of animal toxicity and side-effects”.
